From patent US9012502B2, “Cancer heat therapy-enhancing agent” (SBI Pharmaceuticals Co., Ltd., priority 2010, dated 2015)

Legend:
normal cell line WI-38 = assay: Measuring intracellular PpIX concentration by HPLC; assay type: cell-based, human; details: WI-38, regardless of the 5-ALA concentration added, 37 or 42° C.
Description: (§1) These two types of cells were cultured at 37 or 42° C. for 24 hours in a DME medium containing 10% FBS and 5-ALA at a concentration of 0, 0.5, 1, or 2 mM. Next, the cells were harvested using trypsin treatment. Then, the number of cells contained in a measurement sample was adjusted using a hemocytometer at 1×10^4. After that, the cells were lysed with NaOH, and treated with a DMF solution (i.e., a mixture of N,N-dimethylformamide:2-propanol=100:1). The resulting cell lysate was centrifuged at 13,000 rpm and 4° C. for 10 minutes to collect a supernatant. Subsequently, the supernatant was reacted at room temperature for 24 hours. Finally, the resulting supernatant was used as a measurement sample, and was subjected to a PpIX concentration measurement using HPLC.

[1] = system: transformed human embryonic kidney cell line HEK293; assay: Measuring intracellular PpIX concentration by HPLC; assay type: cell-based; details: for intracellular PpIX concentration, increase compared with 5-ALA-free cells: 42° C. for 24 hours
Description: as §1

[2] = system: human hepatoma-derived cell line HepG2; assay: Hyperthermia sensitivity test using trypan blue reagent; assay type: cell-based; details: for fraction of dead cells (%), increase compared with 5-ALA-free cells: 42° C.
Source text: (§2) A colon cancer-derived cell line Caco-2, a human hepatoma-derived cell line HepG2, a human gastric cancer-derived cell line KatoIII, and a human cervical cancer-derived cell line HeLa were used as cancer cell lines. A human embryonic kidney cell line HEK293 was used as cells transformed so as to overgrow like cancer cells. A human normal diploid fibroblast line WI-38, a murine fibroblast-like cell line NIH3T3, and a human embryonic lung-derived normal fibroblast MRCS were used as normal cells. Each of these cells was cultured at 37 or 42° C. for 24 hours in a DME medium containing 10% FBS and 5-ALA at a concentration of 0, 0.5, 1, or 2 mM, and treated with trypsin for cell harvest. Then, equal volumes of the harvested cell-containing solution and a trypan blue reagent were mixed, and the number of the cells was counted with a hemocytometer to calculate the fraction of dead cells (cells stained with trypan blue) (%; percent cell death).

[3] = system: human gastric cancer-derived cell line KatoIII; assay: as above; assay type: cell-based
Source text: as §2

[4] = system: human embryonic lung-derived normal fibroblast MRCS; assay: as above; assay type: cell-based; details: 42° C.
Source text: as §2

[5] = system: murine fibroblast-like cell line NIH3T3; assay: as above; assay type: cell-based; details: normal cells NIH3T3, 42° C.
Source text: as §2

[6] = system: human cervical cancer-derived cell line HeLa; assay: as above; assay type: cell-based
Source text: as §2

[7] = 37° C., each concentration of 5-ALA

## NCC(=O)CCC(=O)O [5-ALA, 5-aminolevulinic acid]
Normal cell line WI-38
  intracellular PpIX concentration (in words): detection limit or less
[1]; HEK293, 0.5 mM 5-ALA
  intracellular PpIX concentration, increase compared with 5-ALA-free cells: about 2.75 times
[1]; HEK293, 1.0 mM 5-ALA
  intracellular PpIX concentration, increase compared with 5-ALA-free cells: about 6.3 times
[1]; HEK293, 2.0 mM 5-ALA
  intracellular PpIX concentration, increase compared with 5-ALA-free cells: about 5.9 times
[1]; culture conditions at 42° C.
  PpIX concentration in the HEK293 cell line (in words): increased depending on the 5-ALA concentration
[2]; HepG2, 0.5 mM 5-ALA
  fraction of dead cells (%), increase compared with 5-ALA-free cells: about 1.1 times
[2]; HepG2, 1.0 mM 5-ALA
  fraction of dead cells (%), increase compared with 5-ALA-free cells: about 1.35 times
[2]; HepG2, 2.0 mM 5-ALA
  fraction of dead cells (%), increase compared with 5-ALA-free cells: about 1.5 times
[2]; HepG2, 37° C., each concentration of 5-ALA
  fraction of dead cells (in words): did not increase
[2]; HepG2, 42° C.
  fraction of dead cells (in words): markedly increased depending on the 5-ALA concentration
[3]; 0.5 mM 5-ALA, 42° C.
  fraction of dead cells (%), increase compared with 5-ALA-free cells: about 1.8 times
[3]; 1.0 mM 5-ALA, 42° C.
  fraction of dead cells (%), increase compared with 5-ALA-free cells: about 1.8 times
[3]; 2.0 mM 5-ALA, 42° C.
  fraction of dead cells (%), increase compared with 5-ALA-free cells: about 1.8 times
[3]; [7]
  fraction of dead cells (in words): did not increase
[3]; 42° C.
  fraction of dead cells (in words): markedly increased depending on the 5-ALA concentration
[4]
  increase in the fraction of dead cells depending on the 5-ALA concentration (in words): no increase
[5]
  increase in the fraction of dead cells depending on the 5-ALA concentration (in words): no increase
[6]; 0.5 mM 5-ALA, 42° C.
  fraction of dead cells (%), increase compared with 5-ALA-free cells: about 1.4 times
[6]; 1.0 mM 5-ALA, 42° C.
  fraction of dead cells (%), increase compared with 5-ALA-free cells: about 1.5 times
[6]; 2.0 mM 5-ALA, 42° C.
  fraction of dead cells (%), increase compared with 5-ALA-free cells: about 1.6 times
[6]; [7]
  fraction of dead cells (in words): did not increase
[6]; 42° C.
  fraction of dead cells (in words): markedly increased depending on the 5-ALA concentration
